Assay results reported in US20250170132A1, “SALTS AND POLYMORPHIC FORMS OF MENIN INHIBITORS AND PHARMACEUTICAL COMPOSITIONS THEREOF” (Syndax Pharmaceuticals, Inc., priority 2023, published 2025).

Key:
Format in all cases: physicochemical
[1] = Solution stability studies at accelerated conditions (counterion-related degradation; Impurity A formation vs temperature, pH, time)
From the text: FIG. 32 depicts Impurity A formation as a function of temperature, pH, and time in solution.
(§1) Compound A monocitrate monohydrate has at least two advantageously and unexpected characteristics. Both alone and in comparison, with Compound A salts known in the art (e.g. Compound A fumarate salts). […] Second, in the manufacturing process, Compound A fumarate requires a separate slurrying step which results in a solvate with an organic solvent. Compound A monocitrate monohydrate salt is isolated directly from ethanol:water, no slurrying step is required. […] Additionally, the Compound A monocitrate forms a monohydrate instead of a solvate with one or more organic molecules.

[2] = Approximate solubility estimation in 24 solvents; conditions: thermodynamic from solid
Description: About 10 mg of Compound A monocitrate monohydrate was weighed into a 4.0 mL vial and 25 μL of solvent was added at RT. The solution was shaken and stirred. If no clear solution was obtained, another 25 μL was added and this was repeated until 4.0 mL solvent is added.

[3] = Polymorph screen: anti-solvent addition
Description: (§2) X-ray powder diffraction (XRPD) • Instrument: Panalytical Empyrean • Parameters: X-Ray tube Cu (Kα radiation); Power: 45 kV×40 mA • Scanning range: 2 to 40 2θ (degree) • Step size: 0.01 degree • Scanning speed: 6.33 degree (20) per minute Thermogravimetric analysis (TGA) • Instrument: TA Instruments Discovery TGA • Parameters: Ramp 10° C. per minute, 25 to 300° C., 50 mL/min N2 sweep Differential scanning calorimetry (DSC) • Instrument: TA Instruments Discovery DSC • Parameters: Ramp 10° C. per minute, up to 300° C. Polarized light microscopy (PLM) • Instrument: Nikon Eclipse Ci POL • Camera: Nikon DS-Fi3 • Software: Nikon NIS Elements
Experiments using 10 different techniques including using techniques such as anti-solvent addition, solid vapor diffusion, liquid vapor diffusion, slurry (at RT and 50° C.), slow evaporation, polymer induced crystallization, thermal cycling, sonication, and wet grinding.
Obtained solids were tested by XRPD (Table 30).

[4] = Polymorph screen: liquid vapor diffusion
Description: as §2
The obtained solids were characterized by XRPD after 7-10 days (Table 32).

[5] = Polymorph screen: slurry at RT
Description: as §2
Slurry at RT—About 40 mg API was suspended and stirred in different solvents in 4 mL vials at RT. The solids in the slurry were characterized by XRPD after 5-7 days (Table 33).

[6] = Polymorph screen: polymer-induced crystallization
Description: as §2
The obtained solids were characterized by XRPD after 7-10 days (Table 36).

[7] = Polymorph screen: temperature cycling; conditions: temperature cycling 50→40→30→20→5 °C, total 2 cycles, each step 4 h, isolated at RT, XRPD
Description: as §2
The obtained solids were characterized by XRPD (Table 37).

[8] = Polymorph screen: sonication induced crystallization
Description: as §2
Sonication induced crystallization—About 40 mg API was suspended and sonicated in different solvents in 4 mL vials at RT. The solids in the slurry were characterized by XRPD after 1-day (Table 38).

[9] = Polymorph screen: solvent drop grinding; conditions: XRPD
Description: as §2
Solvent drop grinding—About 30 mg API was ground with different solvents. The obtained solids were characterized by XRPD (Table 39).

[10] = Solution stability studies at accelerated conditions, counterion adduct (Impurity A); conditions: solution stability at accelerated conditions
From the text: as §1, with “characteristics.” for “characteristics. Both alone and in comparison, with Compound A salts known in the art (e.g. Compound A fumarate salts).”
Although this degradation pathway is more accelerated in solution it was also observed in the solid API. Formation of Impurity A was the reason why Compound A sesquifumarate API and drug product were stored at refrigerated temperatures.

CCN(C(=O)c1cc(F)ccc1Oc1cncnc1N1CC2(CCN(C[C@H]3CC[C@H](NS(=O)(=O)CC)CC3)CC2)C1)C(C)C [Compound A monocitrate monohydrate]
reaction of counterion with the pyrimidine ring of Compound A (degradation) [1]: does not react with the pyrimidine ring of Compound A | solubility ([2]; aqueous with cosolvent or surfactant or cyclodextrin, 1,4-dioxane/water (7/3), heated for few seconds using heat gun): 84 to 105 mg/mL | solubility ([2]; aqueous with cosolvent or surfactant or cyclodextrin, 1-PrOH/water (1/1), heated for few seconds using heat gun): 161 to 242 mg/mL | solubility ([2]; aqueous with cosolvent or surfactant or cyclodextrin, Acetone/H2O (9:1 v/v), RT): 15 to 17.5 mg/mL | solubility ([2]; aqueous with cosolvent or surfactant or cyclodextrin, MeOH/water (7/3), heated for few seconds using heat gun): 93 to 186 mg/mL | solubility ([2]; aqueous with cosolvent or surfactant or cyclodextrin, THF/water (1/1), heated for few seconds using heat gun): 141 to 212 mg/mL | solubility ([2]; organic solvent or mixture, 2-MeTHF, RT): < 2.9 mg/mL | solubility ([2]; organic solvent or mixture, Anisole, RT): < 3 mg/mL | solubility ([2]; organic solvent or mixture, Benzene, RT): < 2.9 mg/mL | solubility ([2]; organic solvent or mixture, CPME, RT): < 2.1 mg/mL | solubility ([2]; organic solvent or mixture, Chloroform, RT): < 2.3 mg/mL | solubility ([2]; organic solvent or mixture, Cyclohexane, RT): < 2.3 mg/mL | solubility ([2]; organic solvent or mixture, DMA, RT): 81 to 162 mg/mL | solubility ([2]; organic solvent or mixture, DMF, RT): 80 to 160 mg/mL | solubility ([2]; organic solvent or mixture, Diethylamine, RT): 170 to 340 mg/mL | solubility ([2]; organic solvent or mixture, Diisopropyl ether, RT): < 2.3 mg/mL | solubility ([2]; organic solvent or mixture, Dimethoxyethane (DME), RT): < 2.4 mg/mL | solubility ([2]; organic solvent or mixture, EtOAc, RT): < 2.3 mg/mL | solubility ([2]; organic solvent or mixture, Heptane, RT): < 2.8 mg/mL | solubility ([2]; organic solvent or mixture, IPA, RT): < 2.8 mg/mL | solubility ([2]; organic solvent or mixture, MEK, RT): < 2.4 mg/mL | solubility ([2]; organic solvent or mixture, MTBE, RT): < 2.8 mg/mL | solubility ([2]; organic solvent or mixture, NMP, RT): 120 to 240 mg/mL | solubility ([2]; organic solvent or mixture, Propylene glycol, heated for few seconds using heat gun): 22.2 to 27.8 mg/mL | solubility ([2]; organic solvent or mixture, THF, RT): < 2 mg/mL | Crystal Form ([3]; solvent DMA, antisolvent CPME): Form A | Crystal Form ([3]; solvent DMA, antisolvent EtOAc): Form A | Crystal Form ([3]; solvent DMA, antisolvent Toluene): Form A | Crystal Form ([3]; solvent DMSO, antisolvent Benzene, *Loss of crystallinity): Form A* | Crystal Form ([3]; solvent NMP, antisolvent IPAc): Form A | Crystal Form ([4]; solvent DCM, antisolvent Acetone): Form A | Crystal Form ([4]; solvent DCM, antisolvent MTBE): Form A | Crystal Form ([4]; solvent NMP, antisolvent MTBE): Form A | Crystal Form ([5]; Acetone): Form A | Crystal Form ([5]; Benzene): Form A | Crystal Form ([5]; CHCl3): Form A | Crystal Form ([5]; CPME): Form A | Crystal Form ([5]; DMA:Benzene 1:9): Form A | Crystal Form ([5]; DMA:CHCl3 1:9): Form A | Crystal Form ([5]; DMA:EtOH 1:9): Form A | Crystal Form ([5]; DMF:EtOAc 1:9): Form A | Crystal Form ([5]; DMSO (SL→Gel)): Amorphous | Crystal Form ([5]; DMSO:IPAc 1:9): Form A | Crystal Form ([5]; Diethylamine:EtOH 3:7): FB-2 | Crystal Form ([5]; IPA): Form A | Crystal Form ([5]; MIBK): Form A | Crystal Form ([5]; MeOH:MeCN 9:1): Form A | Crystal Form ([5]; NMP:IPA 1:9): Form A | Crystal Form ([5]; THF:H2O (aw = 0.2)): Form A | Crystal Form ([5]; THF:H2O (aw = 0.4)): Form A | Crystal Form ([5]; THF:H2O (aw = 0.6)): Form A | Crystal Form ([5]; THF:H2O (aw = 0.8)): Form A | Crystal Form ([5]; Toluene): Form A | Crystal Form ([6]; polymer Brij, NMP:H2O 1:9, 40° C.): Amorphous | Crystal Form ([6]; polymer PVC, DMF:DCM 1:9, RT): Form A | Crystal Form ([6]; polymer PVP, DMA:H2O 1:9, 40° C.): Form A | Crystal Form ([6]; polymer PVP, NMP:H2O 1:9, 40° C.): Form A | Crystal Form ([7]; 1,4-dioxane:H2O 9:1): Form A* | Crystal Form ([7]; 2-MeTHF:DMF 9:1): Form A* | Crystal Form ([7]; DMSO:Toluene 1:9): Form A* | Crystal Form ([7]; NMP:nPA 1:9): Form A* | Crystal Form ([8]; DMSO:EtOAc 1:9, XRPD after 1 day): Form A | Crystal Form ([8]; THF, XRPD after 1 day): Form A | Crystal Form ([9]; about 30 mg API, 1,4-Dioxane): Form A | Crystal Form ([9]; about 30 mg API, Acetone): Form A | Crystal Form ([9]; about 30 mg API, DCM): Form A | Crystal Form ([9]; about 30 mg API, EtOH): Form A | Crystal Form ([9]; about 30 mg API, THF): Form A | Degradation by reaction of counterion with the pyrimidine ring [10]: absence of this type of degradation
